Experimental data taken from PubChem BioAssay AID264 (DTP/NCI, 2004).
Values joined by “and” are separate entries in the source; they are usually repeats but may differ in a detail not shown here. Identical values can stand only once. Results filed as inconclusive are left out.

Tested on: nude mice, LX-1 lung xenograft intrarenal, tumor weight T/C
Test: NCI In Vivo Anticancer Drug Screen. Data for tumor model Human Lung LX-1 Xenograft (intrarenal inoculation) in NU/NU Swiss (nude) mice
Details: endpoint: mean tumor weight change, higher = larger tumour
Outline: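 Readout: T/C, i.e. treated-group tumor measurement over vehicle-control measurement. Mice bearing transplantable tumors were dosed with compound or vehicle.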

[1] = dose: 300.0 mg/kg/injection, schedule: Q04DX003 (sc), vehicle: Klucel (hydroxypropylcellulose) (HPC)

`CNNCc1ccc(C(=O)NC(C)C)cc1` was tested. Which T/C (dose: 166.66 mg/kg/injection, schedule: Q04DX003 (ip), vehicle: saline) did it give?
The T/C was -73 % of control.

What about the T/C (dose: 333.33 mg/kg/injection, schedule: Q04DX003 (ip), vehicle: saline) of the same compound?
Its T/C is -64 % of control.

What about the T/C (dose: 666.65 mg/kg/injection, schedule: Q04DX003 (ip), vehicle: saline) of the same compound?
The T/C was -73 % of control.

What does the source list for `CCc1c(CC(=O)O)c2cc(C)ccc2n1Cc1ccc(Cl)cc1`?
T/C [1]: 123 % of control; T/C (dose: 600.0 mg/kg/injection, schedule: Q04DX003 (sc), vehicle: Klucel (hydroxypropylcellulose) (HPC)): 82 % of control; T/C (dose: 1200.0 mg/kg/injection, schedule: Q04DX003 (sc), vehicle: Klucel (hydroxypropylcellulose) (HPC)): 92 % of control; T/C (dose: 2400.0 mg/kg/injection, schedule: Q04DX003 (sc), vehicle: Klucel (hydroxypropylcellulose) (HPC)): 50 % of control

What does the source list for `Cc1cc(NCCCCCCCCNc2cc(C)nc3cc(N(C)C)ccc23)c2ccc(N(C)C)cc2n1`?
T/C (dose: 18.75 mg/kg/injection, schedule: Q01DX010 (sc), vehicle: saline with Tween-80): 56 % of control; T/C (dose: 37.5 mg/kg/injection, schedule: Q01DX010 (sc), vehicle: saline with Tween-80): 34 % of control and 45 % of control; T/C (dose: 75.0 mg/kg/injection, schedule: Q04DX003 (sc), vehicle: distilled water + Tween-80 + alcohol): 42 % of control and 60 % of control; T/C (dose: 150.0 mg/kg/injection, schedule: Q04DX003 (sc), vehicle: distilled water + Tween-80 + alcohol): 61 % of control and 72 % of control; T/C (dose: 300.0 mg/kg/injection, schedule: Q04DX003 (sc), vehicle: distilled water + Tween-80 + alcohol): 33 % of control and 39 % of control; T/C (dose: 600.0 mg/kg/injection, schedule: Q04DX003 (sc), vehicle: distilled water + Tween-80 + alcohol): 25 % of control

How did the T/C (dose: 150.0 mg/kg/injection, schedule: Q04DX003 (sc), vehicle: suspension in saline) turn out when `CC1=C(C)C(=O)O[C@@H]([C@](C)(O)[C@]2(O)CC[C@@]3(O)[C@@H]4C[C@H]5O[C@]56CC=CC(=O)[C@]6(C)[C@H]4CC[C@]23C)C1` was run?
Its T/C is 112 % of control.

And the T/C (dose: 300.0 mg/kg/injection, schedule: Q04DX003 (sc), vehicle: suspension in saline)?
Its T/C is 84 % of control.

What about the T/C (dose: 600.0 mg/kg/injection, schedule: Q04DX003 (sc), vehicle: suspension in saline) of the same compound?
Its T/C is 46 % of control.

And the T/C (dose: 1200.0 mg/kg/injection, schedule: Q04DX003 (sc), vehicle: suspension in saline)?
Its T/C is 81 % of control.

`C/C(=N\NC(N)=O)c1cccc(/C(C)=N/NC(N)=O)n1` was tested. Which T/C (dose: 100.0 mg/kg/injection, schedule: Q04DX003 (sc), vehicle: saline with Tween-80) did it give?
The T/C was 83 % of control.

What about the T/C (dose: 200.0 mg/kg/injection, schedule: Q04DX003 (sc), vehicle: saline with Tween-80) of the same compound?
Its T/C is 54 % of control.

What about the T/C (dose: 400.0 mg/kg/injection, schedule: Q04DX003 (sc), vehicle: saline with Tween-80) of the same compound?
Its T/C is 71 % of control.

What about the T/C (dose: 800.0 mg/kg/injection, schedule: Q04DX003 (sc), vehicle: saline with Tween-80) of the same compound?
The T/C was 89 % of control.

`Nc1nc(N)c2cc(S(=O)(=O)c3ccccc3)ccc2n1` was tested. Which T/C (dose: 150.0 mg/kg/injection, schedule: Q04DX003 (sc), vehicle: saline with Tween-80) did it give?
The T/C was 116 % of control.

And the T/C (dose: 300.0 mg/kg/injection, schedule: Q04DX003 (sc), vehicle: saline with Tween-80)?
The T/C was 77 % of control.

What about the T/C (dose: 600.0 mg/kg/injection, schedule: Q04DX003 (sc), vehicle: saline with Tween-80) of the same compound?
The T/C was 87 % of control.

And the T/C (dose: 1200.0 mg/kg/injection, schedule: Q04DX003 (sc), vehicle: saline with Tween-80)?
Its T/C is 95 % of control.

`CC(=O)OC1COC(NC(=O)N(CCCl)N=O)C(OC(C)=O)C1OC(C)=O` (stereo not drawn) was tested. Which T/C (dose: 1.5 mg/kg/injection, schedule: Q01DX010 (sc), vehicle: saline with Tween-80) did it give?
The T/C was 83 % of control.

What about the T/C (dose: 3.0 mg/kg/injection, schedule: Q01DX010 (sc), vehicle: saline with Tween-80) of the same compound?
Its T/C is 71 % of control.

What about the T/C (dose: 6.0 mg/kg/injection, schedule: Q01DX010 (sc), vehicle: saline with Tween-80) of the same compound?
Its T/C is 60 % of control.

And the T/C (dose: 12.0 mg/kg/injection, schedule: Q01DX010 (sc), vehicle: saline with Tween-80)?
Its T/C is 72 % of control.

Which results are given for `COc1ccc(C(N)=O)cc1N=NN(C)C`?
T/C (dose: 12.5 mg/kg/injection, schedule: Q01DX010 (sc), vehicle: Klucel (hydroxypropylcellulose) (HPC)): 9 % of control; T/C (dose: 25.0 mg/kg/injection, schedule: Q01DX010 (sc), vehicle: Klucel (hydroxypropylcellulose) (HPC)): 6 % of control and 15 % of control; T/C (dose: 37.5 mg/kg/injection, schedule: Q04DX003 (sc), vehicle: Klucel (hydroxypropylcellulose) (HPC)): 23 % of control; T/C (dose: 50.0 mg/kg/injection, schedule: Q01DX010 (sc), vehicle: Klucel (hydroxypropylcellulose) (HPC)): -25 % of control; T/C (dose: 75.0 mg/kg/injection, schedule: Q04DX003 (sc), vehicle: Klucel (hydroxypropylcellulose) (HPC)): 13 % of control; T/C (dose: 150.0 mg/kg/injection, schedule: Q04DX003 (sc), vehicle: Klucel (hydroxypropylcellulose) (HPC)): 8 % of control; T/C [1]: 8 % of control

What does the source list for `C1CN(P2(N3CC3)=NP(N3CC3)(N3CC3)=NP(N3CC3)(N3CC3)=N2)CCO1` (stereo not drawn)?
T/C (dose: 6.25 mg/kg/injection, schedule: Q01DX010 (sc), vehicle: saline): 107 % of control; T/C (dose: 12.5 mg/kg/injection, schedule: Q01DX010 (sc), vehicle: saline): 38 % of control and 43 % of control and 53 % of control; T/C (dose: 25.0 mg/kg/injection, schedule: Q01DX010 (sc), vehicle: saline): 28 % of control and 29 % of control and 31 % of control; T/C (dose: 25.0 mg/kg/injection, schedule: Q04DX003 (sc), vehicle: saline): 74 % of control and 82 % of control; T/C (dose: 50.0 mg/kg/injection, schedule: Q01DX010 (sc), vehicle: saline): 6 % of control and 8 % of control; T/C (dose: 50.0 mg/kg/injection, schedule: Q04DX003 (sc), vehicle: saline): 23 % of control and 35 % of control; T/C (dose: 100.0 mg/kg/injection, schedule: Q04DX003 (sc), vehicle: saline): 25 % of control
